According to patent publication US9604983B2, “Herbicidal 3-(2-benzyloxyphenyl)-2,4-dihydroxy-1,8-naphthyridine derivatives” (SYNGENTA LIMITED, priority 2013, dated 2017):

Key:
Assay in all cases: Post-emergence efficacy, glasshouse pot test
Assay type in all cases: in vivo
Details in all cases: post-emergence application at 1000 g/ha; evaluated after 13 days; five point scale
[1] = system: Alopecurus myosuroides (ALOMY)
Method: (§1) B1 Post-emergence Efficacy Seeds of a variety of test species are sown in standard soil in pots:—Solanum nigrum (SOLNI), Amaranthus retoflexus (AMARE), Setaria faberi (SETFA), Alopecurus myosuroides (ALOMY), Echinochloa crus-galli (ECHCG), Ipomoea hederacea (IPOHE). After 8 days cultivation (post-emergence) under controlled conditions in a glasshouse (at 24/16° C., day/night; 14 hours light; 65% humidity), the plants are sprayed with an aqueous spray solution derived from the formulation of the technical active ingredient in acetone/water (50:50) solution containing 0.5% Tween 20 (polyoxyethelyene sorbitan monolaurate, CAS RN 9005-64-5). Compounds are applied at 1000 g/ha. The test plants are then grown in a glasshouse under controlled conditions in a glasshouse (at 24/16° C., day/night; 14 hours light; 65% humidity) and watered twice daily. After 13 days, the test is evaluated for the percentage damage caused to the plant. The biological activities are shown below in Table 13, on a five point scale (5=80-100%; 4=60-79%; 3=40-59%; 2=20-39%; 1=0-19%).

[2] = system: Amaranthus retoflexus (AMARE)
Method: as §1

[3] = system: Echinochloa crus-galli (ECHCG)
Method: as §1

[4] = system: Ipomoea hederacea (IPOHE)
Method: as §1

[5] = system: Setaria faberi (SETFA)
Method: as §1

[6] = system: Solanum nigrum (SOLNI)
Method: as §1

SMILES | percentage damage caused to the plant, ALOMY [1] | percentage damage caused to the plant, AMARE [2] | percentage damage caused to the plant, ECHCG [3] | percentage damage caused to the plant, IPOHE [4] | percentage damage caused to the plant, SETFA [5] | percentage damage caused to the plant, SOLNI [6]
C#CCn1c(=O)c(-c2c(Cl)ccc(Cl)c2OCc2ccc(OC)cc2)c(O)c2cccnc21 [Compound 2.002] | 5 (5=80-100%) | 4 (4=60-79%) | 5 (5=80-100%) | 5 (5=80-100%) | 5 (5=80-100%) | 5 (5=80-100%)
C#CCn1c(=O)c(-c2c(Cl)ccc(Cl)c2OCc2ccccc2)c(O)c2cccnc21 [Compound 2.001, 3-(2-Benzyloxy-3,6-dichloro-phenyl)-4-hydroxy-1-prop-2-ynyl-1,8-naphthyridin-2-one] | 5 (5=80-100%) | 5 (5=80-100%) | 5 (5=80-100%) | 5 (5=80-100%) | 5 (5=80-100%) | 5 (5=80-100%)
CC(C)C(=O)Oc1c(-c2cccc(Cl)c2OCc2ccccc2)c(=O)n(CC(F)F)c2ncccc12 [Compound 11.001] | 1 (1=0-19%) | 5 (5=80-100%) | 1 (1=0-19%) | 5 (5=80-100%) | 1 (1=0-19%) | 5 (5=80-100%)
C#CCn1c(=O)c(-c2c(Cl)ccc(Cl)c2OCc2ccccc2)c(O)c2nccnc21 [Compound 2.008] | 5 (5=80-100%) | 5 (5=80-100%) | 5 (5=80-100%) | 5 (5=80-100%) | 5 (5=80-100%) | 5 (5=80-100%)
C#CCn1c(=O)c(-c2c(Cl)ccc(Cl)c2OCc2ccc(C(F)(F)F)cc2)c(O)c2cccnc21 [Compound 2.006] | 4 (4=60-79%) | 5 (5=80-100%) | 5 (5=80-100%) | 5 (5=80-100%) | 5 (5=80-100%) | 5 (5=80-100%)
C#CCn1c(=O)c(-c2c(Cl)ccc(Cl)c2OCc2ccc(Cl)cc2)c(OC(=O)C(C)C)c2cccnc21 [Compound 1.003] | 1 (1=0-19%) | 5 (5=80-100%) | 4 (4=60-79%) | 5 (5=80-100%) | 3 (3=40-59%) | 5 (5=80-100%)
CC(C)C(=O)Oc1c(-c2c(Cl)ccc(Cl)c2OCc2ccc(Cl)cc2)c(=O)n(CC(F)F)c2ncccc12 [Compound 3.003] | 1 (1=0-19%) | 5 (5=80-100%) | 1 (1=0-19%) | 5 (5=80-100%) | 1 (1=0-19%) | 5 (5=80-100%)
CC(C)C(=O)Oc1c(-c2c(Cl)ccc(Cl)c2OCc2ccccc2)c(=O)n(CC(F)F)c2nccnc12 [Compound 3.008] | 4 (4=60-79%) | 5 (5=80-100%) | 5 (5=80-100%) | 5 (5=80-100%) | 5 (5=80-100%) | 5 (5=80-100%)
C#CCn1c(=O)c(-c2cccc(Cl)c2OCc2ccccc2)c(O)c2cccnc21 [Compound 10.001] | 1 (1=0-19%) | 4 (4=60-79%) | 1 (1=0-19%) | 5 (5=80-100%) | 1 (1=0-19%) | 5 (5=80-100%)
Cc1ccc(COc2c(Cl)ccc(Cl)c2-c2c(O)c3cccnc3n(CC(F)F)c2=O)cc1 [Compound 4.004] | 2 (2=20-39%) | 5 (5=80-100%) | 2 (2=20-39%) | 5 (5=80-100%) | 1 (1=0-19%) | 5 (5=80-100%)
O=c1c(-c2c(F)ccc(Cl)c2OCc2ccccc2)c(O)c2cccnc2n1CC(F)F [Compound 8.001] | 3 (3=40-59%) | 5 (5=80-100%) | 3 (3=40-59%) | 5 (5=80-100%) | 1 (1=0-19%) | 5 (5=80-100%)
